Measured values as given in PubChem BioAssay (NCI).
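Step 1: Grow cells in 96-well plates. Step 2: Expose to compound for 48 hours at 5 concentrations. Step 3: Interpolate endpoints linearly; if unreached, use highest concentration. GI50: concentration for 50% inhibition of growth. TGI marks complete inhibition of growth.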

What was measured:
Assay in all cases: NCI anticancer screen, dose series, 48 h
MOLT-4 leukemia = tested on: MOLT-4 leukemia
KM12 colon = tested on: KM12 colon
HT29 colon = tested on: HT29 colon
SW-620 colon = tested on: SW-620 colon
SN12C renal = tested on: SN12C renal
NCI-H226 lung = tested on: NCI-H226 lung
TK-10 renal = tested on: TK-10 renal
OVCAR-8 ovarian = tested on: OVCAR-8 ovarian
NCI/ADR-RES ovarian = tested on: NCI/ADR-RES ovarian
A498 renal = tested on: A498 renal

Row | Compound | TGI (MOLT-4 leukemia) [µM] | TGI (KM12 colon) [µM] | TGI (HT29 colon) [µM] | TGI (SW-620 colon) [µM] | TGI (SN12C renal) [µM] | TGI (NCI-H226 lung) [µM] | TGI (TK-10 renal) [µM] | TGI (OVCAR-8 ovarian) [µM] | TGI (NCI/ADR-RES ovarian) [µM] | TGI (A498 renal) [µM] | GI50 (SN12C renal) [µM]
1 | O=C1C(Nc2ccc(S(=O)(=O)Nc3cnc4ccccc4n3)cc2)=CC(=Nc2ccc(S(=O)(=O)Nc3cnc4ccccc4n3)cc2)c2ccccc21 | 71.2 | 31 | 36.3 | 32.1 | 30.6 | 43.7 | > 54.7 | 39.5 | > 100 | 30.3 | –
2 | CN1C(=O)c2c(c3c4ccccc4n(C)c3c3c2c2ccccc2n3C)C1=O | > 100 | > 100 | > 100 | > 100 | > 100 | > 100 | > 100 | > 100 | > 100 | > 100 | –
3 | COc1ccc(C2=Nn3c(nc4sc5c(c4c3=O)CCCC5)SC2)cc1 | > 100 | > 100 | > 100 | > 100 | > 100 | > 100 | > 100 | > 100 | > 100 | > 100 | –
4 | c1ccc(C(OCCN2CC3CCC(C2)N3)c2ccccc2)cc1 | > 100 | > 100 | > 100 | > 100 | > 100 | > 100 | > 100 | > 100 | > 100 | > 100 | –
5 | Cn1c(=Nc2ccccc2[N+](=O)[O-])sc2ccccc21 | > 100 | 15.5 | > 100 | > 100 | > 100 | > 100 | 45.2 | > 100 | > 100 | > 100 | –
6 | CCc1c[n+]2c(cc1C1=CN3c4ccccc4[C@]45CCN6C/C(=C/CO)[C@H](C[C@H]64)[C@@H]([C@@H]1O)[C@H]35)-c1[nH]c3ccccc3c1CC2 | > 50 | > 50 | > 50 | > 50 | > 50 | > 50 | > 50 | > 50 | > 50 | > 50 | –
7 | CCCCCCCCC/C=C1/CC(CO)(COC(=O)C2CCCCC2)OC1=O (stereo unspecified) | > 100 | > 100 | > 100 | > 100 | > 100 | > 100 | > 100 | > 100 | > 100 | > 100 | –
8 | COc1cc2c(cc1OC)C/C(=N\O)c1cc(OC)c(OC)cc1/C=C\2 | > 85 | 95.8 | 15.4 | > 90.6 | > 100 | 45.5 | > 72.6 | 73.3 | 89.3 | > 100 | –
9 | CCOC(=O)C(NS(=O)(=O)c1ccccc1)(C(F)(F)F)P(=O)(OCC(C)C)OCC(C)C (stereo unspecified) | > 100 | > 100 | > 100 | > 100 | > 100 | > 100 | > 100 | > 100 | > 100 | > 100 | –
10 | Cc1ccnc2[nH]c(-c3ccc(Cl)cc3)cc(=O)c12 | > 100 | > 100 | > 100 | > 100 | > 100 | > 30.7 | > 100 | > 100 | > 100 | 46.6 | –
11 | CCc1cc2c(cc1O)CC[C@@H]1[C@@H]2CC[C@]2(C)[C@@H](O)CC[C@@H]12 | 20 | 17.4 | 29.3 | 16.6 | 20 | 26.6 | 60.9 | 22.4 | 9.92 | 34.6 | 7.3
12 | O=C(O)Cn1cnc2c(=O)[nH]c(Nc3ccccc3)nc21 | > 100 | > 100 | > 100 | > 100 | > 100 | > 100 | > 100 | > 100 | > 100 | > 100 | –
13 | OC[C@H](O)[C@@H](OCc1ccccc1)[C@H](NCc1ccccc1)c1cccs1 | > 100 | > 100 | > 100 | > 100 | > 100 | > 100 | > 100 | > 100 | > 100 | > 100 | –
14 | O=C(N/N=C/c1ccc(O)cc1)NNCCO | > 100 | > 100 | > 100 | > 100 | > 100 | > 100 | > 100 | > 100 | > 100 | > 100 | –
15 | COC(=O)[C@@]1(Cc2ccc(OC(C)=O)cc2)Cc2cc3ccccc3n2N1 | > 100 | > 100 | > 100 | > 100 | > 100 | > 100 | > 100 | > 100 | 96.4 | 87.3 | –
16 | CCOP(=O)(OCC)C(Cc1cn(S(=O)(=O)c2ccc(C)cc2)cn1)C(=O)O (stereo unspecified) | > 100 | > 100 | > 100 | > 100 | > 100 | > 100 | > 100 | > 100 | > 100 | > 100 | –
17 | CN(CCCNC(=O)c1[nH]nc2c1ccc1ccccc12)CCCNC(=O)c1[nH]nc2c1ccc1ccccc12 | 26.2 | 39.7 | 34.6 | 35.2 | 30.1 | 30.7 | 31.8 | 30.9 | > 100 | 31.9 | –
18 | C[C@]12CC[C@@H]3c4cc(C=O)c(OCc5ccccc5)cc4CC[C@H]3[C@@H]1CCC2OCc1ccccc1 (stereo partly specified) | > 100 | > 100 | > 100 | > 100 | > 100 | > 100 | > 100 | > 100 | > 100 | > 100 | –
19 | COc1cc([C@@H]2c3cc4c(cc3[C@H](OC3OC5COC(C(C)C)OC5C(O)C3O)C3COC(=O)[C@@H]32)OCO4)cc(OC)c1OC (stereo partly specified) | > 68.4 | 18 | 7.11 | > 100 | > 100 | 12.6 | > 100 | 30.1 | > 79.5 | 9.96 | –
20 | COC(=O)c1cc(NC(=O)Cn2c3ccccc3c3ccccc32)cn1C | > 100 | > 100 | > 100 | > 100 | > 100 | 58.5 | > 100 | > 100 | > 100 | > 100 | –
